Measured values as given in patent publication US10786476B2, “Combination therapy” (IMBRIA PHARMACEUTICALS, INC., priority 2016, dated 2020).
“Also recorded” adds a separate entry of the source. Like-named read-outs stand apart in the source and are kept apart here.

Assay: Viscosity / flow property test (flow out of a vial, be swirled, direct drinking)
Format: physicochemical
Description: Properties of provided compounds and compositions can be readily tested, including using a number of methods widely known and practiced in the art, in accordance with the present disclosure. For example, viscosity and/or taste of provided compounds can be readily tested. In some embodiments, viscosity was assessed by testing whether a provided compound could readily flow out of a vial or be swirled. In some embodiments, viscosity was assessed by testing whether a provided compound could be administered by direct drinking by a subject. In some embodiments, taste was assessed by testing whether a provided compound could be administered by direct drinking by a subject.

| viscosity compared with glycerol (at room temperature) | flow property for formulation (listed as 1-29) | viscosity compared with glycerol (temperature not stated) | SMILES | flow property for formulation |
| --- | --- | --- | --- | --- |
| lower viscosity than glycerol | good flow property for formulation | lower viscosity than glycerol | CCCC(=O)OCC(COC(=O)CCC(=O)OCC(COC(=O)CCC)OC(=O)CCC)OC(=O)CCC (stereo not shown) [Compound I-29, succinate diglycerol tetra-butyric acid] | surprisingly good |
| lower viscosity than glycerol |  | lower viscosity than glycerol | CCCCCCCC(=O)OCC(COC(=O)CCC(=O)OCC(COC(=O)CCCCCCC)OC(=O)CCCCCCC)OC(=O)CCCCCCC (stereo not shown) [Compound I-30, bis (2,3-bis(octanoyloxy)propyl) succinate] | surprisingly good; also recorded: good flow property for formulation |
